# Legend:
# [1] = test system: Mus musculus; test: Toxicity in Mus musculus albino (mouse) assessed as effect on gross behavior at 75 umole/kg, ip; assay type: organism-based; conditions: in vivo
# [2] = test system: Mus musculus; test: Antidepressant activity in Mus musculus albino (mouse) assessed as reversal of reserpine-induced ptosis at 75 umole/kg, ip after 3 hr by chi-square test relative to control; assay type: functional
# [3] = test system: Mus musculus; test: Anorexigenic activity in Mus musculus albino (mouse) assessed as reduction of milk intake at 75 umole/kg, ip relative to control; assay type: functional; design: scale not given: the % may be the effect or the level left
compound,measurement,setting,value
COc1cc(NC(=S)N(C)CCC(Oc2ccc(C(F)(F)F)cc2)c2ccccc2)cc(OC)c1OC (configuration not stated),Activity,[1],Non-toxic
same,Activity,[2],100%
CN(CCC(Oc1ccc(C(F)(F)F)cc1)c1ccccc1)C(=S)NC(C)(C)C (configuration not stated),Activity,[1],Non-toxic
same,Activity,[2],100%
COc1ccc(NC(=S)N(C)CCC(Oc2ccc(C(F)(F)F)cc2)c2ccccc2)cc1 (configuration not stated),Activity,[1],Non-toxic
same,Activity,[2],100%
CC(C)NC(=S)N(C)CCC(Oc1ccc(C(F)(F)F)cc1)c1ccccc1 (configuration not stated),Activity,[1],Non-toxic
same,Activity,[2],100%
CN(C[C@@H]1CCc2ccccc2[C@@H]1Oc1ccc(C(F)(F)F)cc1)C(=S)NCCc1ccccc1,Activity,[1],Non-toxic
same,Activity,[2],100%
CN(C[C@@H]1CCc2ccccc2[C@@H]1Oc1ccc(C(F)(F)F)cc1)C(=O)NC1CCCCC1,Activity,[1],Non-toxic
same,Activity,[2],100%
CN(C[C@@H]1CCc2ccccc2[C@@H]1Oc1ccc(C(F)(F)F)cc1)C(=O)NCCc1ccccc1,Activity,[1],Non-toxic
same,Activity,[2],100%
CC1CCC(NC(=O)N(C)C[C@@H]2CCc3ccccc3[C@@H]2Oc2ccc(C(F)(F)F)cc2)CC1 (some centres not stated),Activity,[1],Non-toxic
same,Activity,[2],80%
CN(CCC(Oc1ccc(C(F)(F)F)cc1)c1ccccc1)C(=O)NC1CCCCC1 (configuration not stated),Activity,[1],Non-toxic
same,Activity,[2],80%
CN(CCC(Oc1ccc(C(F)(F)F)cc1)c1ccccc1)C(=S)NCCc1ccccc1 (configuration not stated),Activity,[1],Non-toxic
same,Activity,[2],40%
CN(CCC(Oc1ccc(C(F)(F)F)cc1)c1ccccc1)C(=S)NCc1ccccc1 (configuration not stated),Activity,[1],Non-toxic
same,Activity,[2],100%
Cc1ccc(NC(=S)N(C)CCC(Oc2ccc(C(F)(F)F)cc2)c2ccccc2)cc1 (configuration not stated),Activity,[1],Non-toxic
same,Activity,[2],80%
CN(CCC(Oc1ccc(C(F)(F)F)cc1)c1ccccc1)C(=O)NCCc1ccccc1 (configuration not stated),Activity,[1],Non-toxic
same,Activity,[2],100%
CN(CCC(Oc1ccc(C(F)(F)F)cc1)c1ccccc1)C(=S)NC1CCCCC1 (configuration not stated),Activity,[1],Non-toxic
same,Activity,[2],100%
CN(CCC(Oc1ccc(C(F)(F)F)cc1)c1ccccc1)C(=S)Nc1ccccc1 (configuration not stated),Activity,[1],Non-toxic
same,Activity,[2],100%
CN(CCC(Oc1ccc(C(F)(F)F)cc1)c1ccccc1)C(=S)NC(=O)c1ccccc1 (configuration not stated),Activity,[1],Non-toxic
same,Activity,[2],100%
CC1CCC(NC(=S)N(C)CCC(Oc2ccc(C(F)(F)F)cc2)c2ccccc2)CC1 (configuration not stated),Activity,[1],Non-toxic
same,Activity,[2],60%
CNCCC(Oc1ccc(C(F)(F)F)cc1)c1ccccc1 (configuration not stated) [FLUOXETINE],Activity,[2],0%
same,Activity,[3],78.49%
COC(=O)[C@H]1[C@H]2C[C@@H]3c4[nH]c5cc(OC)ccc5c4CCN3C[C@H]2C[C@@H](OC(=O)c2cc(OC)c(OC)c(OC)c2)[C@@H]1OC [RESERPINE],Activity,[2],100%
